“Also recorded” adds a separate entry of the source. Like-named read-outs stand apart in the source and are kept apart here.
Key:
[1] = target: H. capsulatum Ggt1 (Histoplasma ohiense, UniProt A0ACF1AEB1); format: biochemical
[2] = tested on: H. capsulatum Ggt1 (GSH-FeR); format: biochemical, Histoplasma capsulatum; conditions: inhibitor 0.1 mM, 15 min pretreatment, then removed by diafiltration, GSH-FeR activity
[3] = tested on: H. capsulatum Ggt1 (GSH-FeR); conditions: cited from earlier work

Row | Compound | Glu transfer catalyzed by γ-Glutamyltransferase (Ggt1), effect of inhibitor [1] | Fe^3+ reduction catalyzed by γ-Glutamyltransferase (Ggt1), effect of inhibitor [2] | further results
1 | [Ga] [gallium] | no inhibitory action; also recorded: No effect | strong inhibitory effect; also recorded: Inhibition | inhibition of GSH-FeR activity [3]: reversibly inhibited
2 | serine/borate complex [SBC] | completely abolished; also recorded: Inhibition | completely abolished; also recorded: Inhibition | –
3 | N[C@H](C(=O)O)[C@@H]1CC(Cl)=NO1 [Acivicin, acivicin] | completely abolished; also recorded: Inhibition | Inhibition | Fe^3+ reduction catalyzed by γ-Glutamyltransferase (Ggt1), effect of inhibitor ([2]; listed as acivicin): completely abolished
4 | N[C@@H](CS)C(=O)NCC(=O)O [cysteinylglycine] | – | – | ability to reduce iron compared to the activity of 1 mM GSH (1 mM): over 117 fold; iron reduction activity (ferrous iron generated) (0.5-1 mM): generated measurable amounts of ferrous iron; iron reduction by cysteinylglycine alone (pH 5.5): 2.85±0.08 μmol of Fe^2+ min^−1 (mmol CysGly)^−1
5 | [N-]=[N+]=CC(=O)CC[C@H](N)C(=O)O [DON, 6-diazo-5-oxo-L-norleucine] | completely abolished; also recorded: Inhibition | completely abolished; also recorded: Inhibition | –
6 | [Al] [Aluminum, aluminum] | no inhibitory action; also recorded: No effect | strong inhibitory effect; also recorded: Inhibition | inhibition of GSH-FeR activity [3]: reversibly inhibited
7 | N[C@@H](CCC(=O)Nc1ccc([N+](=O)[O-])cc1)C(=O)O [GpNA, γ-glutamyl-p-nitroanilide] | – | – | Km ([1]; read-out: apparent optimal Km for GpNA, glutamyl transfer reaction): ~840 µM; Km ([1]; read-out: apparent optimal Km for GpNA, hydrolysis): ~750 µM

Source: patent US20100099122A1 (priority 2008, published 2010)
